We go through eleven compounds from US20250346573A1, “AZAQUINOLINONE DERIVATIVE, PREPARATION METHOD THEREFOR AND USE THEREOF” (CHENGDU EASTON BIOPHARMACEUTICALS CO., LTD., priority 2022, published 2025).

Molecules are shown by their SMILES.

As usually defined, the IC50 is the midpoint of a concentration-inhibition curve. As usually defined, the AUC(0-t) is exposure summed from dosing to a finite time, without extrapolation to infinity. For orientation: Cmax means the peak of the concentration-time curve. By half-life is commonly meant the time needed for the level to fall by half in the phase considered. A low value points to rapid decline.

Series [1] has as its system BRCA1-mutated HCC1395 cells. The series is described as follows: Proliferation inhibitory test of BRCA1-mutated HCC1395 cells (CCK-8). In kind it is cell-based. The note with it: Homo sapiens, 120 h, 5 days, read-out: IC50 (nM), inhibitory activity against BRCA1-mutated HCC1395 cells. As for the experimental part:
CCK-8 was used to measure the content of mitochondrial dehydrogenase in cells at different drug concentrations, and the luminescence intensity was used to reflect the cell activity. The IC50 values of different compounds on BRCA1-mutated HCC1395 cells were calculated using the survival rate, and the proliferation inhibitory effect of the compounds of the present disclosure on BRCA1-mutated HCC1395 cells was studied to evaluate the anti-tumor efficacy of the test compounds at the cellular level.
(§1) On Day −1, the cells were inoculated into the 96-well cell culture plate at a fixed cell density and then placed in the 5% CO2 cell incubator for culture overnight at 37° C.
(§2) On Day 0, the compound to be tested was prepared into a 10 mM stock solution and diluted into 9 concentration points at the concentration of 1,000 nM, 300 nM, 100 nM, 30 nM, 10 nM, 3 nM, 1 nM, 0.3 nM and 0.1 nM in two duplicated wells. A fixed volume of the diluted compound was added to the 96-well cell culture plate and then placed in the 5% CO2 cell incubator for culture at 37° C. for 5 days.
(§3) On Day 5, a fixed volume of CCK-8 was added to the 96-well cell culture plate and incubated in the 5% CO2 cell incubator at 37° C. for 1.5 h, and the plate was read by a chemiluminescence module of the multifunctional microplate reader.
With the logarithmic value of the concentration as an X axis and the survival percentage as a Y axis, a dose-effect curve was fitted by using a log(inhibitor) vs. response-Variable slop (Four parameters) formula of the analysis software Graphpad Prism 9, thereby obtaining the IC50 value of the anti-proliferation inhibitory activity of each compound against BRCA1-mutated HCC1395 cells.

The test system of series [2] is BRCA1-mutated MDA-MB-436 cells. The series can be described thus: Proliferation inhibitory test of BRCA1-mutated MDA-MB-436 cells (CCK-8). The class given is cell-based. The note with it: Homo sapiens, 120 h, 5 days, read-out: IC50 (nM), inhibitory activity against BRCA1-mutated MDA-MB-436 cells. As for the experimental part:
CCK-8 was used to measure the content of mitochondrial dehydrogenase in cells at different drug concentrations, and the luminescence intensity was used to reflect the cell activity. The IC50 values of different compounds on BRCA1-mutated MDA-MB-436 cells were calculated using the survival rate, and the proliferation inhibitory effect of the compounds of the present disclosure on BRCA1-mutated MDA-MB-436 cells was studied to evaluate the anti-tumor efficacy of the test compounds at the cellular level.
as §1, §2, §3
With the logarithmic value of the concentration as an X axis and the survival percentage as a Y axis, a dose-effect curve was fitted by using a log(inhibitor) vs. response-Variable slop (Four parameters) formula of the analysis software Graphpad Prism 9, thereby obtaining the IC50 value of the anti-proliferation inhibitory activity of each compound against BRCA1-mutated MDA-MB-436 cells.

Series [3] in a line: Study on pharmacokinetics of rats (oral gavage, plasma LC-MS/MS). The note with it: female SD rats; for AUC(0-t) / Cmax / half-life: rat. The class given is in vivo. On the procedure: With SD rats as test animals, the plasma concentration in the plasma of rats at different time points after oral administration of the compounds of the present application was determined by an LC-MS/MS method. Pharmacokinetic parameters of the compounds of the present application in rats were obtained to study pharmacokinetic characteristics.
SD rats, female, body weight 180-220 g, 3 rats per group. After being purchased, the animals were fed in an animal house for an adaptation period of at least 3 days and then used for testing after passing quarantine.
3.1. Grouping: The SD rats were randomly grouped according to Table 4, which had no statistical difference in the body weight between groups after grouping.
3.2. Vehicle: 10% DMSO and 90% (20% SBE-β-CD in saline).
According to Table 4, each compound was prepared into a clear solution with the vehicle, respectively, and each group was administered by gavage with the corresponding test drug. Before administration, and at 15 min, 30 min, 1 h, 2 h, 4 h, 6 h, 8 h and 24 h after the administration, a fixed volume of blood was collected through sinuses jugularis, placed in an EDTA-K2 anticoagulant tube, and centrifuged at 4,000 rpm for 10 min to separate the plasma in a centrifuge tube. The plasma was frozen in a refrigerator at −80° C.
The plasma stored at −80° C. at each time point was taken out, and a fixed volume of acetonitrile was added thereto. After being vortexed at 1,500 rpm for 2 min, it was centrifuged for 15 min (3,500 r/min). A fixed volume of solution supernatant was taken for LC-MS/MS analysis.
The pharmacokinetic behaviors of the test compounds were fitted with a non-compartmental model, and the main pharmacokinetic parameters were calculated using DAS3.31 software.

Regarding `CCc1cc2ncc(CN3CCN(c4ccc(C(=O)NC)nc4)CC3)cc2[nH]c1=O` [AZD5305, reference compound], the results for the IC50 in series [1] and in series [2] were 1.76 nM and 0.67 nM, respectively.
Consider `CNC(=O)c1ccc(N2CCN(Cc3ccc4nc(C)c(=O)[nH]c4c3F)CC2)c(F)n1` [AZD9574, reference compound], for which the IC50 in series [1] was 9.93 nM. In series [3] (po. 3 mg/kg), this compound showed a Cl_F_obs of 6.17 mL/min/kg, an AUC(0-t) of 6460 ng·h/mL, a Cmax of 702 ng/mL and a half-life of 6.06 h. For the same compound, in series [2], the IC50 is 21.8 nM.
Take `CNC(=O)c1ccc(N2CCN(Cc3cc(F)c4nc(C)c(=O)[nH]c4c3)CC2)c(C)n1` [Compound 6, 5-(4-((8-fluoro-2-methyl-3-oxo-3,4-dihydroquinoxalin-6-yl)methyl)piperazin-1-yl)-N,6-dimethylpicolinamide]: the IC50 in series [1] is 2.45 nM. Besides, in series [3] (po. 10 mg/kg), the Cl_F_obs worked out at 2.17 mL/min/kg, the AUC(0-t) stood at 72600 ng·h/mL, the concentration peaked (Cmax) at 11300 ng/mL and the half-life is 6.07 h. Further, the IC50 in series [2] worked out at 2.06 nM.
In the case of `CNC(=O)c1ccc(N2CCN(Cc3cc4[nH]c(=O)c(C)nc4c(F)c3F)CC2)c(C)n1` [Compound 9, 5-(4-((7,8-difluoro-2-methyl-3-oxo-3,4-dihydroquinoxalin-6-yl)methyl)piperazin-1-yl)-N,6-dimethylpicolinamide], the IC50 in series [1] came to 2.29 nM. In addition, in series [3] (po. 10 mg/kg), the Cl_F_obs amounted to 0.5 mL/min/kg, the AUC(0-t) was found to be 340000 ng·h/mL, the Cmax was determined as 31900 ng/mL and the half-life was 7.74 h. Besides, the IC50 in series [2] was determined as 5.84 nM.
Turning to `Cc1nc(C(=O)NCC(F)F)ccc1N1CCN(Cc2cc(F)c3nc(C)c(=O)[nH]c3c2)CC1` [Compound 28, N-(2,2-difluoroethyl)-5-(4-((8-fluoro-2-methyl-3-oxo-3,4-dihydroquinoxalin-6-yl)methyl)piperazin-1-yl)-6-methylpicolinamide], the IC50 in series [1] was 2.03 nM; in series [2], 4.53 nM.
With `CCc1nc2c(F)cc(CN3CCN(c4ccc(C(=O)NC)nc4C)CC3)cc2[nH]c1=O` [Compound 32, 5-(4-((2-ethyl-8-fluoro-3-oxo-3,4-dihydroquinoxalin-6-yl)methyl)piperazin-1-yl)-N,6-dimethylpicolinamide], in series [1], the IC50 stood at 1.82 nM. In series [3] (po. 3 mg/kg), this compound showed a Cl_F_obs of 0.83 mL/min/kg, an AUC(0-t) of 50600 ng·h/mL, a Cmax of 7180 ng/mL and a half-life of 7.39 h. Moreover, the IC50 in series [2] came out at 5.24 nM.
As for `CCc1nc2c(F)cc(CN3CCN(c4ccc(C(=O)NCCOC)nc4C)CC3)cc2[nH]c1=O` [Compound 34, 5-(4-((2-ethyl-8-fluoro-3-oxo-3,4-dihydroquinoxalin-6-yl)methyl)piperazin-1-yl)-N-(2-methoxyethyl)-6-methylpicolinamide], in series [3] (po. 3 mg/kg), the Cl_F_obs was 3 mL/min/kg, the area under the curve AUC(0-t) came out at 17000 ng·h/mL, the peak level (Cmax) was 3230 ng/mL and the half-life was 5.2 h. The IC50 in series [2] is 5.87 nM.
On to `CNC(=O)c1ccc(N2CCN(Cc3cc4[nH]c(=O)c(C)nc4cc3OC)CC2)c(Cl)n1` [Compound 37, 6-chloro-5-(4-((7-methoxy-2-methyl-3-oxo-3,4-dihydroquinoxalin-6-yl)methyl)piperazin-1-yl)-N-methylpicolinamide], for which the figures for the IC50 in series [1] and in series [2] were 0.95 nM and 4.88 nM, respectively.
Regarding `CNC(=O)c1ccc(N2CCN(Cc3cc(Cl)c4nc(C)c(=O)[nH]c4c3)CC2)c(C)n1` [Compound 51, 5-(4-((8-chloro-2-methyl-3-oxo-3,4-dihydroquinoxalin-6-yl)methyl)piperazin-1-yl)-N,6-dimethylpicolinamide], the IC50 came to 1.31 nM in series [1] and 1.05 nM in series [2].
As for `Cc1nc(C(=O)NCCF)ccc1N1CCN(Cc2cc3[nH]c(=O)c(C)nc3c(F)c2F)CC1` [Compound 54, 5-(4-((7,8-difluoro-2-methyl-3-oxo-3,4-dihydroquinoxalin-6-yl)methyl)piperazin-1-yl)-N-(2-fluoroethyl)-6-methylpicolinamide], the IC50 in series [2] stood at 4.97 nM.
In the case of `Cc1nc(C(=O)NC2CC2)ccc1N1CCN(Cc2cc(F)c3nc(C)c(=O)[nH]c3c2)CC1` [Compound 55, N-cyclopropyl-5-(4-((8-fluoro-2-methyl-3-oxo-3,4-dihydroquinoxalin-6-yl)methyl)piperazin-1-yl)-6-methylpicolinamide], in series [1], the IC50 is 2.56 nM. Besides, in series [3] (po. 3 mg/kg), the Cl_F_obs is 2.33 mL/min/kg, the AUC(0-t) is 21300 ng·h/mL, the highest level (Cmax) was 2210 ng/mL and the half-life is 6.26 h. Further, the IC50 in series [2] amounted to 2.2 nM.
